{(KFF)3K-eg1} = H-(KFF)3K peptide (K lysine, F phenylalanine) with eg1 linker (8-amino-3,6-dioxaoctanoyl), on the PNA N terminus (5' end); {(R-Ahx-R)4-Ahx} = H-(R-Ahx-R)4-Ahx peptide (R arginine, Ahx 6-aminohexanoyl), on the PNA N terminus; {NH2} = C-terminal amide

What all share (assay): BPP-PNA MIC, broth microdilution
What all share (assay type): cell-based, Acinetobacter baumannii
On the technique in general: Dilution methods test growth across graded concentrations, often in twofold steps.

The subject of data set [1] is A. baumannii ATCC 19606. The note with it: 37 °C, 18 h. On the procedure:
(§1) MIC values were determined by broth microdilution according to standard protocols with a few modifications. An overnight bacterial cell culture was diluted to approximately 5 × 10^5 CFU/mL in non-cation-adjusted Muller Hinton Broth (MHB). Then, 180 µL bacterial solutions were dispensed into a low-bind 96-well plate (Thermo-Scientific, Roskilde, Denmark) along with 20 µL of BPP-PNA compound (BPP-PNA was serially diluted 2-fold from 16 to 0.5 µM in a 96-well plate). The plate was incubated in a Tecan Genios plate reader (GMI, Minnesota, Ramsey, USA) at 37 °C for 18 h with linear shaking, OD was measured every 20 min at 595 nm. […] The minimum bactericidal concentration (MBC) values were determined by plating 10 µL samples from the wells with no visible turbidity onto Mueller–Hinton agar plates. The MBC is determined the lowest concentration of BPP-PNA that reduces the viability of the initial bacterial inoculum by ≥99.9% (3-log reduction in CFU/mL). A minimum of two independent experiments (biological replicates) of the assay were conducted, and two technical replicates were used in each experiment for each bacterium, compound, and concentration.

Data set [2] relates to CRAB strain AC2. On the procedure: as §1
Data set [3] has as its system CRAB strain AC44. On the procedure:
as §1

The subject of data set [4] is A. baumannii SSI1104. Here is the method:
as §1, with “An overnight bacterial cell culture was diluted to approximately 5 × 10^5 CFU/mL in non-cation-adjusted Muller Hinton Broth (MHB).” left out

Data set [5] relates to CRAB strain AC46. On the procedure: as §1, with “An overnight bacterial cell culture was diluted to approximately 5 × 10^5 CFU/mL in non-cation-adjusted Muller Hinton Broth (MHB).” left out
Setting [6] is: Sigma MHB medium without cation, 37 °C, 18 h.
Where [7] appears, read: Table 4 (anti-rne), brand of medium not given, non-cation-adjusted MHB by method.
Setting [8] is: MHB without cation (Oxoid), 37 °C, 18 h.

Consider “H-(KFF)3K-eg1-ATACCGCTTAC-NH2 (all peptide nucleic acid (PNA), 5' {(KFF)3K-eg1}, 3' {NH2}) [PNA 5653, anti-acpP mismatch control of 5652]”, for which the “MIC, ATCC 19606” value in data set [1] (Sigma MHB medium without cation, ~5 × 10^5 CFU/mL, OD595 < 0.1) is on record as 4 µM. Moreover, the “MIC, AC2” value in data set [2] (setting [6]) was 4 µM. The “MIC, AC44” value in data set [3] (setting [6]) was found to be 4 µM. For the same substance, the “MIC, SSI 1104” value in data set [4] (setting [6]) turned out to be 4 µM. The “MIC, AC46” value in data set [5] (setting [6]) was 4 µM.

Regarding “H-(KFF)3K-eg1-ATACGTTTCAT-NH2 (all peptide nucleic acid (PNA), 5' {(KFF)3K-eg1}, 3' {NH2}) [PNA 5654, anti-rne peptide-PNA conjugate, match, +1 to +11]”, in data set [1] (setting [7]), the “MIC, ATCC 19606” value stood at 2 µM. The “MIC, AC2” value in data set [2] (setting [7]) is given as 2 µM. Besides, the “MIC, AC44” value in data set [3] (setting [7]) is listed as 1 µM. The “MIC, SSI 1104” value in data set [4] (setting [7]) turned out to be 2 µM. Also, in data set [5] (setting [7]), the “MIC, AC46” value worked out at 2 µM.

Consider “H-(KFF)3K-eg1- TTTGATGTGTG -NH2 (all peptide nucleic acid (PNA), 5' {(KFF)3K-eg1}, 3' {NH2}) [PNA 5822, anti-rne mismatch control of 5656]”, for which the “MIC, ATCC 19606” value in data set [1] (setting [7]) was 8 µM. In data set [2] (setting [7]), the “MIC, AC2” value turned out to be 8 µM. Besides, the “MIC, AC44” value in data set [3] (setting [7]) was found to be 8 µM. Moreover, in data set [4] (setting [7]), the “MIC, SSI 1104” value is on record as 8 µM. Besides, the “MIC, AC46” value in data set [5] (setting [7]) is recorded as 8 µM.

As to “H-(KFF)3K-eg1-ACGTTTCATGG-NH2 (all peptide nucleic acid (PNA), 5' {(KFF)3K-eg1}, 3' {NH2}) [PNA 5637, anti-rne peptide-PNA conjugate, match, −2 to +9]”, the “MIC, ATCC 19606” value in data set [1] (setting [7]) is reported as 1 µM. Also, the “MIC, AC44” value in data set [3] (setting [7]) amounted to 1 µM. In addition, in data set [5] (setting [7]), the “MIC, AC46” value came out at 1 µM.

For the substance “H-(KFF)3K-eg1-GTTTCATGGGT-NH2 (all peptide nucleic acid (PNA), 5' {(KFF)3K-eg1}, 3' {NH2}) [PNA 5655, anti-rne peptide-PNA conjugate, match, −4 to +7]”, the “MIC, ATCC 19606” value in data set [1] (setting [7]) is reported as 4 µM. Also, in data set [2] (setting [7]), the “MIC, AC2” value was 8 µM. For the same substance, in data set [3] (setting [7]), the “MIC, AC44” value stood at 8 µM.

In the case of “H-(KFF)3K-eg1-ATCCGTTTAAT-NH2 (all peptide nucleic acid (PNA), 5' {(KFF)3K-eg1}, 3' {NH2}) [PNA 5821, anti-rne mismatch control of 5654]”, the “MIC, ATCC 19606” value in data set [1] (setting [7]) worked out at 4 µM. Also, in data set [2] (setting [7]), the “MIC, AC2” value stood at 2 µM. In data set [3] (setting [7]), the “MIC, AC44” value came out at 1 µM. In addition, the “MIC, SSI 1104” value in data set [4] (setting [7]) was found to be 2 µM. For the same substance, in data set [5] (setting [7]), the “MIC, AC46” value was 2 µM.

In the case of “H-(KFF)3K-eg1-ATGAGGCCATG-NH2 (all peptide nucleic acid (PNA), 5' {(KFF)3K-eg1}, 3' {NH2}) [PNA 5657, anti-ftsZ peptide-PNA conjugate, match, −1 to +10]”, in data set [1] (MHB without cation (Oxoid)), the “MIC, ATCC 19606” value is over 16 µM. In data set [3] (setting [8]), the “MIC, AC44” value was found to be 16 µM.

For “H-(R-Ahx-R)4-Ahx-GAGTCCAGGAC-NH2 (all peptide nucleic acid (PNA), 5' {(R-Ahx-R)4-Ahx}, 3' {NH2}) [PNA 5616, anti-ftsZ (R-Ahx-R)4-Ahx-PNA, mismatch]”, in data set [1] (MHB without cation (Oxoid)), the “MIC, ATCC 19606” value was over 16 µM. Further, the “MIC, AC44” value in data set [3] (setting [8]) was over 16 µM.

Regarding “H-(KFF)3K-eg1-ACGATTCTTGG-NH2 (all peptide nucleic acid (PNA), 5' {(KFF)3K-eg1}, 3' {NH2}) [PNA 5638, anti-rne mismatch control of 5637]”, the “MIC, ATCC 19606” value in data set [1] (setting [7]) is reported as 2 µM. Also, the “MIC, AC44” value in data set [3] (setting [7]) came to 2 µM. Also, the “MIC, AC46” value in data set [5] (setting [7]) amounted to 1 µM.

For the substance “H-(KFF)3K-eg1-GGCCATGACCT-NH2 (N-terminal (KFF)3K-eg1 peptide, C-terminal amide, backbone not given here, further chemistry not given here) [PNA 5658, anti-ftsZ peptide-PNA conjugate, match, −5 to +6]”, the “MIC, ATCC 19606” value in data set [1] (MHB without cation (Oxoid)) is given as 4 µM. For the same substance, in data set [3] (setting [8]), the “MIC, AC44” value is 8 µM. Besides, the “MIC, SSI 1104” value in data set [4] (setting [8]) is reported as 8 µM.

Source of the values: article PMC8071358, “Targeting of the Essential acpP, ftsZ, and rne Genes in Carbapenem-Resistant Acinetobacter baumannii by Antisense PNA Precision Antibacterials” (Biomedicines, 2021).
